Assay results published in paper PMC8748556, “CXCR4 peptide-based fluorescence endoscopy in a mouse model of Barrett’s esophagus” (EJNMMI Research, 2022).
Square brackets hold non-standard residues; d marks the D form. Side chains are listed from the residue outwards. Peptide text beside a SMILES is read from it. * marks the point of attachment. X1 = C[N+]1=C(C=CC=CC=C2N(CCCCCC(=O)*)c3ccc(S(=O)(=O)O)cc3C2(C)C)C(C)(C)c2cc(S(=O)(=O)[O-])ccc21; dTyr(3-I) = N[C@H](Cc1ccc(O)c(I)c1)C(=O)O; 2Nal = N[C@@H](Cc1ccc2ccccc2c1)C(=O)O; dNMeOrn = CN[C@H](CCCN)C(=O)O; 4Abz = Nc1ccc(C(=O)O)cc1; dDap = NC[C@@H](N)C(=O)O

Tests used:
[1] = assay type: physicochemical; conditions: pH 7.4
Method: Given promising data obtained with MK007 in our preclinical mouse model, we performed preliminary in vitro studies on human cell lines. Competition binding studies (IC50) were performed using Jurkat cells (4 × 10^5 cells/sample) and [^125I]FC131 as radioligand. […] To determine the log P of MK007, the corresponding non-iodinated precursor was radioiodinated using the Iodogen method, and the octanol/PBS partition coefficient of [^125I]MK007 was determined using a modified shake-flask-method.

[2] = system: dysplastic lesions at the squamocolumnar junction of L2-IL1B mice; assay type: in vivo, mouse
Method: Five 12-to-16-month-old IL1B mice were intravenously injected into the tail vein with 60 nmol of MK007 diluted in 0.9% NaCl (tot. vol. 150 µL; 400 nmol/mL) and sacrificed 4 h post injection (p.i.) by isoflurane overdosage. One non-injected 12-month-old IL1B mouse served as negative control. The whole stomach and esophagus were then excised and imaged using a homemade ex vivo wide-field fluorescence imaging system. Briefly, the fluorescence images were acquired at different time exposure (0.2, 0.5, 1 and 2 s), using a 670 nm diode laser (B&W tek, Newark, DE, USA) and appropriate bandpass filter (780/10). A back illuminated EM-CCD camera (iXon DU888, Andor, Belfast, Northern Ireland, UK) was then used to capture the signal. The target-to-background ratio (TBR) of the stomach was performed by dividing the fluorescence signal in the squamocolumnar junction (SCJ) area (target lesion) with the adjacent normal gastric glandular tissue (background area) using ImageJ/Fiji software. In the organs, the signal quantification was performed by calculating the corrected total cell fluorescence/CTCF = integrated density – [(area * AVERAGE (mean background)]. For CTCF, three regions of interest (ROIs) without any tissue were used as background.

[3] = system: dysplastic lesions of L2-IL1B mice; experiment: Fluorescence molecular endoscopy; assay type: in vivo; conditions: L2-IL1B mice 12-14 months, 60 nmol i.v., 4 h p.i.; lesion vs normal surrounding esophageal tissue; mean ± SEM, 3 mice, 2-5 lesions per mouse
Method: Three L2-IL1B mice (12–14 months old) were used for fluorescence molecular endoscopy before ex vivo imaging. Endoscopy was performed after sacrificing the mice at 4 h p.i. of MK007 using a homemade system previously developed by our group and optimized for small animal imaging. Briefly, the endoscopy system consisted of a flexible fiberscope (Micrendo-Fiberskop, SCHÖLLY FIBER OPTIC GMBH, Denzlingen, Germany) where both white light (provided by a 250-W halogen lamp, KL-2500 LCD, Schott AG, Mainz, Germany) and fluorescence (fiber coupled continuous wave (CW) laser diode emitting at 670 nm, SLD1332V, Thorlabs, Newton, NJ, USA) are coupled, allowing simultaneous color and near-infrared (NIR) fluorescence endoscopy. Videos in color and fluorescence channel were recorded using a custom-made endoscopy software and stored in AVI file format. Two NaCl-injected IL1B mice (17 and 12 months old) were used as negative controls for the validation of the endoscopy system. […] For quantification of Sulfo-Cy5 signal, single frames or frame sequences showing dysplastic lesions were used and the fluorescence signal from the target lesion and the background were quantified with ImageJ by handmade ROIs. […] The TBR was then calculated by dividing the mean fluorescence intensity from the lesion by the one from the background region.

C[C@@H](NC(=O)[C@@H](CCCNC(=N)N)NC(=O)[C@@H](CN)NC(=O)CCCCCN1C(=CC=CC=CC2=[N+](C)c3ccc(S(=O)(=O)[O-])cc3C2(C)C)C(C)(C)c2cc(S(=O)(=O)O)ccc21)C(=O)Nc1ccc(C(=O)NCCC[C@@H]2C(=O)N[C@@H](CCCNC(=N)N)C(=O)N[C@@H](Cc3ccc4ccccc4c3)C(=O)NCC(=O)N[C@H](Cc3ccc(O)c(I)c3)C(=O)N2C)cc1 [MK007] (cyclo([dTyr(3-I)][dNMeOrn]([4Abz-dA-dR-dDap-X1])R[2Nal]G))
log P [1]: − 1.83 ± 0.02 | Target-to-background ratio (TBR), ex vivo wide-field imaging ([2]; L2-IL1B mice 12-16 months, 60 nmol i.v., 4 h p.i., SCJ vs adjacent normal gastric glandular tissue, mean ± SEM, n = 5): 2.45 ± 0.24 | mean target-to-background ratio in dysplastic lesions (ex vivo imaging and endoscopy) ([2]; L2-IL1B mice, 4 h after injection, abstract statement covering ex vivo imaging and endoscopy): > 2 | Target-to-background ratio (TBR), fluorescence endoscopy [3]: 2.13 ± 0.17
